How the values were obtained:
H9c2 cells [1] = assay: Hypoxia/reoxygenation (H/R) injury model, MTT cell viability assay; type: cell-based, rat; details: for protective effect compared with the positive control drug: vs diazoxide 50 μM; for protective effect compared with the positive control drug / order of cardioprotective effects / viability of cardiomyocyte cells after H/R (ratio of viable cells relative to normoxia control): hypoxia/reoxygenation; for order of cardioprotective effects: rank order of the 7 derivative compounds; for viability of cardiomyocyte cells after H/R (ratio of viable cells relative to normoxia control): mean±SEM
Procedure: (§1) Embryonic rat heart derived cell line H9c2 (2-1), shorted in H9c2 cells, was purchased from ATCC (CRL-1446), which is a permanent cell line and derived from embryonic BDIX rat ventricular heart tissue. Dulbecco's Modified Eagle Medium, Fetal Bovine Serum, and Penicillin-Streptomycin-Glutamine, 2.5% Trypsin/EDTA solution, Phosphate-buffered saline from GIBCO® (Invitrogen™) were used.
(§2) H9c2 cells were cultured in DMEM medium supplemented with 10% fetal bovine serum, 1% glutamine, 50 U/ml penicillin and […] streptomycin. The culture atmosphere for H9c2 cells was 95% air with 5% carbon dioxide (CO2) at 37.0° C. The medium was replaced every 2-3 days. A stock of cells was grown in a 100 cm^2 culture dish and split before confluence at a subcultivation ratio of 1:4. Cells used for experiments were seeded at a density of 1.0×10^4 cells/well in a 96-well culture plate, and cells in each well were allowed to grow to 60-80% confluence within 24 h prior to drug treatment.
After treatment with desired concentrations of drug for 3 h, the cells were washed twice with Krebs-Ringer Bicarbonate buffer (KRB; 115 mM NaCl, 4.7 mM KCl, 2.5 mM CaCl2, 1.2 mM KH2PO4, 1.2 mM MgSO4, 24 mM NaHCO3, 10 mM HEPES; pH 7.4). Aliquots of KRB supplemented with 0.01% (w/v) BSA were added to the cells immediately prior to hypoxia. A Billups-Rothenberg modular incubator chamber (Billups-Rothenberg, Inc.; DelMar, Calif.) was used to produce an in vitro Hypoxia/Reoxygenation challenge. In essence, cells were placed in the sealed chamber and the chamber was flushed with 100% nitrogen for 5 min at a flow rate of 25 liter/min. After closing all sealable connectors, the chamber was transferred to an incubator and the cells in the chamber were subjected to a period of hypoxia at 37° C. Reoxygenation was initiated by opening the chamber and then replacing the KRB with fresh DMEM medium. The cells were then cultured in the incubator under an atmosphere of 5% (v/v) CO2 in air at 37° C. for designed periods.
(§3) The cell viability was measured using the MTT colorimetric assay, which was based on the conversion of MTT to formazan crystals by mitochondrial dehydrogenase. Briefly, H9c2 cells were seeded in 96-well plates at 1×10^4 cells/well and incubated at 37° C. for 48 h. The cells were then treated with DMSO (H/R control), diazoxide (50 μM). Compounds A-G (at two concentrations of 12.5 μM or 25 μM) and incubated under hypoxia condition. The cells without any treatment and incubated under normoxia condition were used as normal control. At the end of the treatments, […] MTT (5 mg/ml) was added for 4 h and then […] MTT buffer (10% SDS solution, pH7.4) was added to each well. After overnight incubation and 30 s vibration, the absorbance was read at 490 nm wavelength. Results were expressed as the ratio of the number of viable cells with treatments relative to that of the normoxia control.
Data were expressed as mean±SEM. One-way ANOVA with multiple comparisons using the Dunnett's Multiple Comparison Test was used to analyze differences between groups. All statistical analysis was performed using Prism 5 for Windows version 5.00 (GraphPad software, Inc., La Jolla, Calif. 92037 USA). Differences were considered significant if p<0.05.

H9c2 cells [2] = assay: Cytotoxicity study in normoxia condition, MTT cell viability assay; type: cell-based, rat
Procedure: as §1, §2, §3
The cell line and reagents used, and cell culture methods, cell viability assay and statistical analysis employed were described in Example 2.
The cells were treated with desired concentrations of compounds A-G for 3 h, then the medium thereof was replaced with DMEM medium with 10% fetal bovine serum, 1% glutamine, 50 U/ml penicillin and […] streptomycin. The culture atmosphere for normaxia condition was 95% air with 5% carbon dioxide (CO2) at 37.0° C. The cells were then cultured in the incubator for designed periods. The cells without any treatment and incubated under normoxia condition were used as positive control.
Results were expressed as the ratio of the number of viable cells with treatments relative to that of the positive control.

3-O-[β-D-glucopyranosyl(1→2)-β-D-glucopyranosyl]-3β,12β,20(R), 24(S)-tetrahydroxydammar-25-ene and its 24(R) epimer [Compound C]
protective effect compared with the positive control drug (H9c2 cells [1]; 12.5 or 25 μM): higher than the positive control drug
order of cardioprotective effects (H9c2 cells [1]): G>F>C>A>D>B, E
cytotoxicity under normoxia condition (H9c2 cells [2]; equivalent dosages): no significant cytotoxicity

3-O-[β-D-glucopyranosyl(1→2)-β-D-glucopyranosyl]-3β,12β,20(S),25-tetra-hydroxydammar-23-ene [Compound B]
order of cardioprotective effects (H9c2 cells [1]): G>F>C>A>D>B, E

3-O-[β-D-glucopyranosyl(1→2)-β-D-glucopyranosyl]-20(R), 24(S)-epoxydammarane-3β,12β-triol and its 24(R) epimer [Compound E]
order of cardioprotective effects (H9c2 cells [1]): G>F>C>A>D>B, E
cytotoxicity under normoxia condition (H9c2 cells [2]; equivalent dosages): no significant cytotoxicity

CC1=NS(=O)(=O)c2cc(Cl)ccc2N1 [Positive 50, diazoxide, reference compound]
viability of cardiomyocyte cells after H/R (ratio of viable cells relative to normoxia control) (H9c2 cells [1]; 50 μM positive control, p<0.001): 61.69±0.37%

3-O-[β-D-glucopyranosyl(1→2)-β-D-glucopyranosyl]-3β,12β,20(R), 25-tetrahydroxydammar-23-ene [Compound D]
viability of cardiomyocyte cells after H/R (ratio of viable cells relative to normoxia control) (H9c2 cells [1]; 25 μM, 3 h pretreatment): 61.06±0.30%
protective effect compared with the positive control drug (H9c2 cells [1]; 12.5 or 25 μM): higher than the positive control drug
order of cardioprotective effects (H9c2 cells [1]): G>F>C>A>D>B, E
cytotoxicity under normoxia condition (H9c2 cells [2]; equivalent dosages): no significant cytotoxicity

3-O-[β-D-glucopyranosyl(1→2)-β-D-glucopyranosyl]-3β,12β,20(S), 24(S)-tetrahydroxydammar-25-ene and its 24(R) epimer [Compound A]
protective effect compared with the positive control drug (H9c2 cells [1]; 12.5 or 25 μM): higher than the positive control drug
order of cardioprotective effects (H9c2 cells [1]): G>F>C>A>D>B, E
cytotoxicity under normoxia condition (H9c2 cells [2]; 12.5 μM, vs untreated control): no statistically significant cytotoxicity
cytotoxicity under normoxia condition (H9c2 cells [2]; 25 μM, vs untreated control): no statistically significant cytotoxicity
cytotoxicity under normoxia condition (H9c2 cells [2]; equivalent dosages): no significant cytotoxicity

CC(C)=CCC[C@](C)(O)[C@H]1CC[C@]2(C)[C@@H]1[C@H](O)C[C@@H]1[C@@]3(C)CC[C@H](O[C@@H]4O[C@H](CO)[C@@H](O)[C@H](O)[C@H]4O[C@@H]4O[C@H](CO)[C@@H](O)[C@H](O)[C@H]4O)C(C)(C)[C@@H]3CC[C@]12C [Rg3, reference compound]
protective effect against I/R injury induced by hypoxia/reoxygenation, compared with H/R control group (H9c2 cells [1]; 12.5 or 25 μM): have protective effect

Reference: patent publication US9273088B2, “Ginsenoside derivative compounds and the use thereof in protection against ischemia/reperfusion injury” (Macau University of Science and Technology, priority 2013, dated 2016)
